We go through 9 molecules from patent publication US7087642B2 (priority 1999, dated 2006).

One assay has as its target IMPDH human type II (Homo sapiens, UniProt P12268). The assay can be described thus: biochemical.
The subject of another assay is human PBMC T cells. The assay can be described thus: cells. The assay is classed as cell-based. The following applies: read-out: T-cells (IC50).
Another assay concerns human PBMC B cells. The assay can be described thus: cells. The class given is cell-based. The conditions noted are these: read-out: B-cells (IC50).

The structures appear in SMILES notation. Like-named read-outs stand apart in the source and are kept apart here.

As to `COc1cc(NC(=O)Nc2cccc([C@@H](C)NC(=O)OCCC#N)c2)ccc1C#N` [Compound 173], the Ki – broadly, a measure of affinity in units of concentration, obtained from inhibition or displacement – at IMPDH human type II (read-out: Ki) is > 50 nM. Besides, the IC50 (commonly the concentration needed to halve the response being measured) in the assay on human PBMC T cells (Homo sapiens, 72 h) is > 1000 nM; in the assay with human PBMC B cells (Homo sapiens, 72 h), 100 to 1000 nM.
For the molecule `CCC(CC#N)OC(=O)N[C@H](C)c1cccc(NC(=O)Nc2ccc(C#N)c(OC)c2)c1` (stereo partly drawn) [Compound 174], the Ki at IMPDH human type II was > 50 nM. The IC50 was > 1000 nM with human PBMC T cells and 100 to 1000 nM in the assay with human PBMC B cells.
For the molecule `CCC(CO)OC(=O)N[C@H](C)c1cccc(NC(=O)Nc2ccc(C#N)c(OC)c2)c1` (stereo partly drawn) [Compound 175], on IMPDH human type II (read-out: Ki), the Ki was > 50 nM. Moreover, the IC50 in the assay on human PBMC T cells (Homo sapiens, 72 h) was > 1000 nM; in the assay on human PBMC B cells (Homo sapiens, 72 h), > 1000 nM.
`CC[C@H](CO)OC(=O)N[C@H](C)c1cccc(NC(=O)Nc2ccc(C#N)c(OC)c2)c1` [Compound 179]: the Ki at IMPDH human type II (read-out: Ki) is > 50 nM. For the same molecule, the IC50 in the assay with human PBMC T cells (Homo sapiens, 72 h) was > 1000 nM; in the assay on human PBMC B cells (Homo sapiens, 72 h) it was > 1000 nM.
Take `CC[C@H](CO)OC(=O)N[C@@H](C)c1cccc(NC(=O)Nc2ccc(C#N)c(OC)c2)c1` [Compound 180]: on IMPDH human type II (read-out: Ki), the inhibitory constant (Ki) is 10 to 50 nM. Moreover, the IC50 with human PBMC T cells (Homo sapiens, 72 h) was 100 to 1000 nM; with human PBMC B cells (Homo sapiens, 72 h), > 1000 nM.
Consider `CCC(CC#N)OC(=O)N[C@@H](C)c1cccc(NC(=O)Nc2ccc(-c3cnco3)c(OC)c2)c1` (stereo partly drawn) [Compound 181], for which, on IMPDH human type II (read-out: Ki), the Ki was < 10 nM. The IC50 is < 100 nM in the assay on human PBMC T cells (Homo sapiens, 72 h) and < 100 nM in the assay with human PBMC B cells (Homo sapiens, 72 h).
For `CCOc1cc(NC(=O)Nc2cccc([C@H](C)NC(=O)O[C@H](CC)CC#N)c2)ccc1C#N` [Compound 182], the Ki on IMPDH human type II (read-out: Ki) was > 50 nM. Moreover, the IC50 with human PBMC T cells (Homo sapiens, 72 h) was > 1000 nM; in the assay on human PBMC B cells (Homo sapiens, 72 h) it was 100 to 1000 nM.
Regarding `COc1cc(NC(=O)Nc2cccc([C@H](C)NC(=O)O[C@H]3CCOC3)c2)ccc1C#N` [Compound 185], the Ki at IMPDH human type II (read-out: Ki) was in the range of 10 to 50 nM. The 50% inhibitory concentration (IC50) in the assay on human PBMC T cells and in the assay on human PBMC B cells was 100 to 1000 nM throughout.
On IMPDH human type II, `C[C@H](NC(=O)O[C@H]1CCOC1)c1cccc(NC(=O)Nc2ccc(C#N)c(Cl)c2)c1` [Compound 187] returned a Ki of 10 to 50 nM. In addition, the IC50 was 100 to 1000 nM with human PBMC T cells (Homo sapiens, 72 h) and < 100 nM in the assay on human PBMC B cells (Homo sapiens, 72 h).
